{"source": "patent US12458818B2", "about": "“Anti-trophoblast cell surface antigen 2 (TROP2) antibodies and antibody drug conjugates comprising same” (CSPC MEGALITH BIOPHARMACEUTICAL CO., LTD., priority 2019, dated 2025)", "key": {"MDA-MB-468": {"system": "MDA-MB-468", "assay": "In vitro cytotoxicity assay, MDA-MB-468", "assay_type": "cell-based", "settings": "MDA-MB-468 TROP2+ human breast adenocarcinoma cell line", "method": "(§1) Additional in vitro cytotoxicity assays were performed to test the ability of DP002-HC1LC1-ADC to inhibit the growth of MDA-MB-468 (a TROP2^+ human breast adenocarcinoma cell line) and HCC38 (a TROP2^+ human mammary ductal carcinoma cell line)."}, "HCC38": {"system": "HCC38", "assay": "In vitro cytotoxicity assay, HCC38", "assay_type": "cell-based", "settings": "HCC38 TROP2+ human mammary ductal carcinoma cell line", "method": "as §1"}, "BxPC-3": {"system": "BxPC-3", "assay": "In vitro cytotoxicity assay, BxPC-3", "assay_type": "cell-based", "settings": "BxPC-3 human pancreatic adenocarcinoma cell line", "method": "(§2) DP002-HC1LC1-ADC is an antibody-drug conjugate comprising anti-TROP antibody DP002-HC1LC1, which comprises HCl (SEQ ID NO: 52) and LC 1 (SEQ ID NO: 58), conjugated to monomethyl auristatin E (MMAE) at a drug-antibody ratio (DAR) of 2. A DP002-HC1LC1-ADC was prepared using a conjugation method described in WO 2015/191883. A series of in vitro cytotoxicity assays were performed to assess the ability of DP002-HC1LC1-ADC to inhibit the growth of the following TROP2 expressing cancer cell lines: HCC1954 (a human breast carcinoma cell line), BxPC-3 (a human pancreatic adenocarcinoma cell line), and NCI-N87 (a human gastric carcinoma cell line). Experiments using staurospirone, a positive apoptosis control, and anti-TROP2 antibody DP002-HC4LC5, which comprises HC4 (SEQ ID NO: 55) and LC5 (SEQ ID NO: 62), were performed in parallel."}, "HCC1954": {"system": "HCC1954", "assay": "In vitro cytotoxicity assay, HCC1954", "assay_type": "cell-based", "settings": "HCC1954 human breast carcinoma cell line", "method": "as §2"}, "NCI-N87": {"system": "NCI-N87", "assay": "In vitro cytotoxicity assay, NCI-N87", "assay_type": "cell-based", "settings": "NCI-N87 human gastric carcinoma cell line", "method": "as §2"}, "human TROP2": {"biological_target": "T1, human TROP2 (Homo sapiens, UniProt P09758)", "T1 sequence (P09758 27-323)": "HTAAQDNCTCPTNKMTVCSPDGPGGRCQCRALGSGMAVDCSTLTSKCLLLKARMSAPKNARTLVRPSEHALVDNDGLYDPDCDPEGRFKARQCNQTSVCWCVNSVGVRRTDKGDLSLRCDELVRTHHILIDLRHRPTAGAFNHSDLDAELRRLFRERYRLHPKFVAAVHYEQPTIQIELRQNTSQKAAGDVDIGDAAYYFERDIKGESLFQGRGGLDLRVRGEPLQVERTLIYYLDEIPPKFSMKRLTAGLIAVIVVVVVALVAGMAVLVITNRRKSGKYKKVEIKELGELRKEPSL", "assay": "Surface plasmon resonance kinetics and affinities (Table 8B)", "assay_type": "binding", "settings": "SPR, analyte TROP2", "method": "Surface plasmon resonance (SPR) experiments were performed to determine the kinetics and affinities of certain antibodies shown in Table 8A."}, "SKBR3 cells": {"system": "SKBR3 cells", "assay": "FACS internalization of anti-TROP2 antibodies by SKBR3 cells", "assay_type": "cell-based, human", "settings": "20 nM antibody mixed with 60 nM pHAb-labelled secondary antibody, overnight incubation", "method": "FACS experiments were performed to verify that antibodies 1B3, 15D9, 15A10, 17B6, and 17D1 were internalized by SKBR3 cells. SKBR3 is a TROP2-expressing human breast carcinoma cell line. Briefly, 1.2×10^5 SKBR3 cells were seeded into each 12-well plates and cultured overnight. 300 μL of 20 nM control antibody, 1B3, 15D9, 15A10, 17B6, or 17D1 (in DMEM-10) were mixed with 300 μL 60 nM pHAb-labelled secondary antibody for 15 minutes at room temperature in the dark. The labeled antibodies mixtures were added to the SKBR3 cells and incubated overnight. Following overnight incubation, the SKBR3 cells were trypsinized, washed twice with 1% BSA/PBS, and analyzed via flow cytometry."}}}
{"molecule": "CN[C@@H]1C[C@H]2O[C@@](C)([C@@H]1OC)n1c3ccccc3c3c4c(c5c6ccccc6n2c5c31)C(=O)NC4", "note": "[Staurosprione, staurospirone]", "values": [{"measurement": "IC50", "setting": "MDA-MB-468", "result": 14.7, "unit": "nM"}, {"measurement": "Max % inhibition", "setting": "MDA-MB-468", "result": 92.38, "unit": "%"}, {"measurement": "IC50", "setting": "HCC38", "result": 4.26, "unit": "nM"}, {"measurement": "Max % inhibition", "setting": "HCC38", "result": 99.44, "unit": "%"}, {"measurement": "IC50", "setting": "BxPC-3", "result": 5.37, "unit": "nM"}, {"measurement": "Max % inhibition", "setting": "BxPC-3", "result": 98.02, "unit": "%"}, {"measurement": "Max % inhibition", "setting": "BxPC-3; listed as staurospirone", "result": "greater than 93%"}, {"measurement": "IC50", "setting": "HCC1954", "result": 21.7, "unit": "nM"}, {"measurement": "Max % inhibition", "setting": "HCC1954", "result": 95.12, "unit": "%"}, {"measurement": "Max % inhibition", "setting": "HCC1954; listed as staurospirone", "result": "greater than 93%"}, {"measurement": "IC50", "setting": "NCI-N87", "result": 9.31, "unit": "nM"}, {"measurement": "Max % inhibition", "setting": "NCI-N87", "result": 93.44, "unit": "%"}, {"measurement": "Max % inhibition", "setting": "NCI-N87; listed as staurospirone", "result": "greater than 93%"}]}
{"molecule": "Control: biosimilar of the anti-TROP2 antibody sacituzumab [reference compound]", "values": [{"measurement": "Kd", "setting": "human TROP2", "result": 0.4, "unit": "nM"}, {"measurement": "Rmax", "setting": "human TROP2", "result": 50.7}, {"measurement": "ka", "setting": "human TROP2", "result": 511000, "unit": "M⁻¹ s⁻¹"}, {"measurement": "kd", "setting": "human TROP2", "result": 0.000204, "unit": "s⁻¹"}]}
{"molecule": "1B3: mouse anti-human TROP2 antibody, VH SEQ ID NO: 22, VL SEQ ID NO: 27 (antibody, V domains shown) VH: QVQLQQSGAELVRPGVSVKISCKGSGYTFTDYSINWVKQSHAKSLEWIGVISTYYGDASYNQKFKGKATMTVDKSSSTAYMELARLTSEDSAIYYCARYGDGYNQFDYWGQGTTLTVSS VL: DIVLTQSPASLAVSLGQRATISCRVSESVDSYGNNFMHWYQQKPGQPPKLLIYRASNLESGVPARFSGSGSGTDFTLTINPMEADDVATYYCQQSYEDPYTFGGGTKLEIK", "values": [{"measurement": "internalization by SKBR3 cells (flow cytometry)", "setting": "SKBR3 cells", "result": "internalized"}]}
{"molecule": "17B6: mouse anti-human TROP2 antibody, VH SEQ ID NO: 26, VL SEQ ID NO: 31 (antibody, V domains shown) VH: QVQLQQSGAELVRPGVSVKISCKGSGYTFTDYGMNWVKQSHAKSLEWIGVISTFYGDANYNQKFKGKATMTVDKSSSTAYMELARLTSEDSAIYYCARRGNYDSMDYWGQGTSVTVSS VL: DIVLTQSPVFLAVSLGQRATISCRASESVDSYGNSFMHWYQQKPGQPPKLLIYRASNLESGIPARFSGSGSRTDFTLTINPVEADDVETYYCQQSYEDPPTFGGGTKLEIE", "values": [{"measurement": "internalization by SKBR3 cells (flow cytometry)", "setting": "SKBR3 cells", "result": "internalized"}]}
{"molecule": "15D9: mouse anti-human TROP2 antibody, VH SEQ ID NO: 24, VL SEQ ID NO: 29 (antibody, V domains shown) VH: QVQLQQSGAELVRPGVSVKISCKGSGYTFTDYSIHWVKQSHAKSLEWIGVISSYYGDATYNQKFKGKATMTVDKSSSTAYMELARLTSEDSAIYYCALLGAYNYFDYWGQGTTLTVSS VL: DIVLTQSPASLAVSLGQRATISCRASESVDSYGNSFMHWYQQKPGQPPKLLVYRASNLESGIPARFSGSGSRTDFTLTINPVEADDVATYYCQQSYEDPPTFGGGTKLEIK", "values": [{"measurement": "internalization by SKBR3 cells (flow cytometry)", "setting": "SKBR3 cells", "result": "internalized"}]}
{"molecule": "15A10: mouse anti-human TROP2 antibody, VH SEQ ID NO: 23, VL SEQ ID NO: 28 (antibody, V domains shown) VH: EVQLEQSGPGLVQPSQSLSITCTVSGFSLTRYGVHWVRQSPGRSLEWLGVIWSGGNTDYNAAFISRLTITKDNSKSQVFFKMNSLQPNDTGVYYCAREDRYVGEFAYWGQGTLVTVSA VL: DIVLTQSTASLAVSLGQRATISCRASESVDSYGNSFIHWYQQKPGQPPKLLIYRASNLESGIPARFSGSGSRTDFTLTINPVEADDVATYYCQQSNEDPRTFGGGTKLEIK", "values": [{"measurement": "internalization by SKBR3 cells (flow cytometry)", "setting": "SKBR3 cells", "result": "internalized"}]}
{"molecule": "17D1: mouse anti-human TROP2 antibody, VH SEQ ID NO: 25, VL SEQ ID NO: 30 (antibody, V domains shown) VH: QVQLQQSGAELVRPGVSVKISCKGSGYTFTDYSIHWVKQSHAKSLEWIGLISTYYGDATYTQKFKGKATMTVDKSSSTAYMELARLTSEDSAIYYCALLGAYNYFDYWGQGTTLTVSS VL: DIVLTQSPASLAVSLGQRATISCRASESVDSYGNSFMHWYQQKPGQPPKLLVYRASNLESGIPARFSGSGSRTDFTLTINPVEADDIATYYCQQSYEDPPTFGGGTKLEIK", "values": [{"measurement": "internalization by SKBR3 cells (flow cytometry)", "setting": "SKBR3 cells", "result": "internalized"}]}
